Laboratory results reported in ChEMBL document CHEMBL1201862, “PubChem BioAssay data set” (2004).
Activity calls are given as the source filed them.

What was measured:
[1] = molecular target: T1, Adenosylmethionine-8-amino-7-oxononanoate aminotransferase (Mycobacterium tuberculosis, UniProt P9WQ81); experiment: Mycobacterium tuberculosis BioA enzyme inhibitor Measured in Biochemical System Using Plate Reader - 2163-02_Inhibitor_Dose_CherryPick_Activity.; type: functional, Mycobacterium tuberculosis UT205
T1 sequence (P9WQ81 whole entry): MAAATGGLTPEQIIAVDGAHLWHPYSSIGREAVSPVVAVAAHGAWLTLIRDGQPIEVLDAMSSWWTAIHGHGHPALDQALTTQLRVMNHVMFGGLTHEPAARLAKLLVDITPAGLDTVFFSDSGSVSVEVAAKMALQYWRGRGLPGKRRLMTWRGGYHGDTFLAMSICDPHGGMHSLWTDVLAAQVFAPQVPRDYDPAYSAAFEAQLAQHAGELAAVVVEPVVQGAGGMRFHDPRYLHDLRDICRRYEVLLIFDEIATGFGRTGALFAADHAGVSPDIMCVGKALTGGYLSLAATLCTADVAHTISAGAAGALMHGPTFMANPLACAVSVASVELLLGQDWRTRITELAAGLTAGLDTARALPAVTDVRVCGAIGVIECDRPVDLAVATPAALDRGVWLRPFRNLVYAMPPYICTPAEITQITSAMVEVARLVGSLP

[2] = miR-122 activators in hepatoma reporter cells, dose response, cell-based, Huh7 psiCHECK-miR122, Renilla luciferase, cherry-picked (AID 651956); type: functional;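 further: huh7 hepatoma cells stably carrying a psiCHECK-2 miR-122 sensor plasmid; renilla luciferase signal reporting endogenous miR-122 activity after 48 h compound exposure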
[3] = intracellular Trypanosoma cruzi inhibitors in host cells – cell-based, plate reader, cherry-pick samples, set 3, dose response (AID 651818); type: functional;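 further: compounds incubated with infected cells for about four days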
cells [4] = type: functional, cell-based
[5] = molecular target: T2, Trace amine-associated receptor 1 (Homo sapiens, UniProt Q96RJ0); experiment: Fluorescence-based cell-based high throughput dose response assay to identify agonists of the human trace amine associated receptor 1 (TAAR1).; type: functional
T2 sequence (Q96RJ0 whole entry): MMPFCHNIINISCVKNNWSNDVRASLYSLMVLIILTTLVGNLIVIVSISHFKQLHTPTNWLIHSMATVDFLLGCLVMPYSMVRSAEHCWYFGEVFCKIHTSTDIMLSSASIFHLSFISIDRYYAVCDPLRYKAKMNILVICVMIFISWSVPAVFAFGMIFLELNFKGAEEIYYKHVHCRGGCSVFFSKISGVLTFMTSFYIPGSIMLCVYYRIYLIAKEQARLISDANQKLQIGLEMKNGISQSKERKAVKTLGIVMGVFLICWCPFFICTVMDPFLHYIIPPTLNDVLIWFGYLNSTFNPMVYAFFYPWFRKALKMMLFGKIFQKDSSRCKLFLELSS

[6] = molecular target: T2, Trace amine-associated receptor 1; experiment: Counterscreen for agonists of the human trace amine associated receptor 1 (hTAAR1): Fluorescence-based cell-based high throughput dose response assay to identify hTAAR1 agonist that also desensitize TAAR1 receptor response.; type: functional
cells [7] = type: functional, cell-based; remark: listed apart in the source
Paired box protein Pax-8 = Paired box protein Pax-8 (Homo sapiens, UniProt Q06710); experiment: inhibitors of PAX8-driven TPO luciferase reporter, dose response, RMG-I cells, cherry-pick (AID 687027); type: functional, cell-based;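 further: luciferase reporter driven by Pax8 target thyroperoxidase promoter measured by SteadyGlo luminescence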
Chain of Paired box protein Pax-8 (Q06710 whole entry): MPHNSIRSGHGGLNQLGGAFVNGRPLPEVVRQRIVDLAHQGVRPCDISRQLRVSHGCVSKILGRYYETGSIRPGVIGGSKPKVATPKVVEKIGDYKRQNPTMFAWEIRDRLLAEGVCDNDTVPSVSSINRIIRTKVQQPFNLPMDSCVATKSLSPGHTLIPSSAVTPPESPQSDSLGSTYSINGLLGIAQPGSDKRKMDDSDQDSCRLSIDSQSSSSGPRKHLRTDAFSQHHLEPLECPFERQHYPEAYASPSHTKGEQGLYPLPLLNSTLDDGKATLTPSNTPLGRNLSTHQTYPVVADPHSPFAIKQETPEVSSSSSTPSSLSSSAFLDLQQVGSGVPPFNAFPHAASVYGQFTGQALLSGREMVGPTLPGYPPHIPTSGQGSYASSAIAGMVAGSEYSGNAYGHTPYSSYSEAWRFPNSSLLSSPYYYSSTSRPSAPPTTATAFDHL

[8] = NIH:OVCAR-3 ovarian cancer cell cytotoxicity, dose response, PAX8 inhibitor project, plate reader, dry powder samples (AID 743044); type: functional, cell-based
[9] = IGROV1 ovarian cancer cell cytotoxicity, dose response, PAX8 inhibitor project, plate reader, dry powder samples (AID 743043); type: functional, cell-based; details: IGROV-1
[10] = cytotoxicity in OVCAR8 ovarian cancer cells, dose response, PAX8 project, cell-based, plate reader, dry powder samples (AID 743197); type: functional; details: OVCAR-8
Fatty acid synthase [11] = molecular target: T3, Fatty acid synthase (Homo sapiens, UniProt P49327); experiment: FAS thioesterase domain inhibitors, dose response, biochemical, endpoint fluorescence intensity, uHTS hits (AID 624327); type: functional;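 further: fluorescence from hydrolysis of an O-methyl fluorescein acyl ester substrate by the enzyme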
T3 sequence (P49327 whole entry, the tested form may be a part): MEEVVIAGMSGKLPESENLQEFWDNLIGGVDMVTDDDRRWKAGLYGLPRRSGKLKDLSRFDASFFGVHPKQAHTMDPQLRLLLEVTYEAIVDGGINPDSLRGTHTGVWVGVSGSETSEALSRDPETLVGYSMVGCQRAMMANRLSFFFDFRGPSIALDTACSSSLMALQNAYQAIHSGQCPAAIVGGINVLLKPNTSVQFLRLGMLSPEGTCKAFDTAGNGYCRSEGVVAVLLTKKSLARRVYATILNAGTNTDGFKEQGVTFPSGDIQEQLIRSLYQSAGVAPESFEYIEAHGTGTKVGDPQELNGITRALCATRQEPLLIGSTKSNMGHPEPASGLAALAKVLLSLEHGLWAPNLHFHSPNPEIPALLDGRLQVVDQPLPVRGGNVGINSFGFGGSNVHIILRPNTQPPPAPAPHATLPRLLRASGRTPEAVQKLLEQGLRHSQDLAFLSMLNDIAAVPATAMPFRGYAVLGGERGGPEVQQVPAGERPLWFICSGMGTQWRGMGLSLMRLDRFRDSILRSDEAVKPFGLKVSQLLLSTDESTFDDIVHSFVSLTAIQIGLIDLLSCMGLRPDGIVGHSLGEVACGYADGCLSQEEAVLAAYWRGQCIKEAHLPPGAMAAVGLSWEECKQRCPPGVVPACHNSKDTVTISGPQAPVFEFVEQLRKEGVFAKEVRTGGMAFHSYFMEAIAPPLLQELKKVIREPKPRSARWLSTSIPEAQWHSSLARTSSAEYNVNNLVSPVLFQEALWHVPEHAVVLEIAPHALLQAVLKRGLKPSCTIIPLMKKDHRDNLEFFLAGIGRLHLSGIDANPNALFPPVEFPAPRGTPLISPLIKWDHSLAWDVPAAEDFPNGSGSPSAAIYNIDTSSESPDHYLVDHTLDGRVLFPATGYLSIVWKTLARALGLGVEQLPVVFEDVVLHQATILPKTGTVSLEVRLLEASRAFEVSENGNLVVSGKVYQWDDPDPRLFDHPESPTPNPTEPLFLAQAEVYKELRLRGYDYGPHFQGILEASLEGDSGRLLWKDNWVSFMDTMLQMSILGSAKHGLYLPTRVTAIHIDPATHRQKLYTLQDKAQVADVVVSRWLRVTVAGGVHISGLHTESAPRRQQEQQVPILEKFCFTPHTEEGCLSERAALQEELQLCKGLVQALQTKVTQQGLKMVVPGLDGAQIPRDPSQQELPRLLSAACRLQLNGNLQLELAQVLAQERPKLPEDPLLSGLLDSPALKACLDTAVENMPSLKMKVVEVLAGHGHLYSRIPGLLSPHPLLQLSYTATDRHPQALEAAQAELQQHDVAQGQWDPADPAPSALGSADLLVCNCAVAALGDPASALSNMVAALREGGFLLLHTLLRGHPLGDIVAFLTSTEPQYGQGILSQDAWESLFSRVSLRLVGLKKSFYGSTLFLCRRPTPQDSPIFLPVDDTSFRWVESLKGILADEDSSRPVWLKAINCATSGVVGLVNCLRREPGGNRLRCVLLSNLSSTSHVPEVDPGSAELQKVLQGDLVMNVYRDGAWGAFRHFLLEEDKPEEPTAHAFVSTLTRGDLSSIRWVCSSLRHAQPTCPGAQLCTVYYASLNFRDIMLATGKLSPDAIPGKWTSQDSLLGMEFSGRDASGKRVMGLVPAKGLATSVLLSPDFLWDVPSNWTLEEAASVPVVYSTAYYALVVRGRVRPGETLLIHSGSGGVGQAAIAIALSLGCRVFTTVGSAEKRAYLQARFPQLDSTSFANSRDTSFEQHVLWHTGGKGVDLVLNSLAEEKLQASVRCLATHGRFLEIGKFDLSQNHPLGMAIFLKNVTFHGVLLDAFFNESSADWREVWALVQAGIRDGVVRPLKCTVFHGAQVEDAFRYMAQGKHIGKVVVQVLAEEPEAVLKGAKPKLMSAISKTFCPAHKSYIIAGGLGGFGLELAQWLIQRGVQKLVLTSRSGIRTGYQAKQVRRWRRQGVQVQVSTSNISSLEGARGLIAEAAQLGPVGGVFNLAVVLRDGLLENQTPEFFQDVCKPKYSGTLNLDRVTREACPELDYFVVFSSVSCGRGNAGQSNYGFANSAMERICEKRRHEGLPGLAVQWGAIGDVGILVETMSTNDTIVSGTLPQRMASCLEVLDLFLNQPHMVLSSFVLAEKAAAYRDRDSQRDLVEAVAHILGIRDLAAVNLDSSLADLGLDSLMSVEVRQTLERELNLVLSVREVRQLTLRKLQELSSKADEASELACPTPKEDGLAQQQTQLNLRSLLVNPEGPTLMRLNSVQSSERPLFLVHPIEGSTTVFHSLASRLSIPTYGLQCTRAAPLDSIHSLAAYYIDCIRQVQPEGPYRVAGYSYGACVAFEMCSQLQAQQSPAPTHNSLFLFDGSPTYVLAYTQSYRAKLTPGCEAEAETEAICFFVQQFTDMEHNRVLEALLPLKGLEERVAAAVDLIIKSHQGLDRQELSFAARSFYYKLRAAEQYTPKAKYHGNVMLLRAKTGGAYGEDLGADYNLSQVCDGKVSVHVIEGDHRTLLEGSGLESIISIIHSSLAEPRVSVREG

Fatty acid synthase [12] = molecular target: T3, Fatty acid synthase; experiment: FAS thioesterase domain inhibitors, dose response, biochemical, kinetic fluorescence intensity (AID 624326); type: functional;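 further: rate of fluorescence rise from hydrolysis of a fluorogenic O-methyl fluorescein ester substrate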
[13] = molecular target: Heat shock protein HSP 90-alpha (Homo sapiens, UniProt P07900); type: functional, organism-based

In the case of O=C(c1ccncc1)N1CC[C@H]2[C@H](CO)Nc3ccc(Br)cc3[C@H]21, the AC50 [1] is reported as 18.5 µM (active).

With COCC(=O)N(C)C[C@H]1Oc2cc(C#Cc3cccnc3)ccc2S(=O)(=O)N([C@H](C)CO)C[C@H]1C the AC50 [2] was 3.31 µM (active).

For C[C@@H]1CN([C@H](C)CO)S(=O)(=O)c2ccc(C#CC3CC3)cc2O[C@@H]1CN(C)C(=O)c1cccc(F)c1, the AC50 [2] was 22.3 µM (active).

With CN1c2ccc(-c3ccccc3)cc2[C@H]2[C@H](CCN2C(=O)c2ccccc2F)[C@H]1CO the AC50 [1] was 0.183 µM (active).

For C[C@H]1CN([C@@H](C)CO)C(=O)Cc2cc(NC(=O)Nc3ccc(C(F)(F)F)cc3)ccc2O[C@H]1CN(C)Cc1ccc(Cl)c(Cl)c1, the AC50 [3] was 2.92 µM (active).

With C[C@@H]1CN([C@H](C)CO)C(=O)c2cccc(NS(=O)(=O)c3ccc(Cl)cc3)c2O[C@@H]1CN(C)Cc1ccc(C(=O)Nc2ccccc2N)cc1 the AC50 [3] was 9.17 µM (active).

With C[C@@H]1CN([C@@H](C)CO)C(=O)c2cc(N(C)C)ccc2O[C@@H]1CN(C)Cc1ccc(C(=O)Nc2ccccc2N)cc1 the AC50 [3] was 3.57 µM (active).

With CN(CCc1ccccc1)C(C(=O)c1ccc2c(c1)OCO2)c1nnnn1-c1ccccc1NC(=O)OC(C)(C)C (configuration not stated) the IC50 (cells [4]) was > 29.9 µM (inactive), the EC50 [5] was 0.881 µM (active) and the IC50 [6] was 3.26 µM (active). The EC50 (cells [7]) was > 29.9 µM (inactive).

For C[C@H](CO)N1C[C@H](C)[C@H](CN(C)S(=O)(=O)c2ccc(F)cc2)Oc2c(NC(=O)CCCCCC(=O)Nc3ccccc3N)cccc2C1=O, the AC50 [3] was 2.58 µM (active).

With O=C1CN(S(=O)(=O)Cc2ccccc2)C[C@@H]2[C@@H](c3ccc(C#CC4CC4)cc3)[C@@H](CO)N12 the AC50 (Paired box protein Pax-8) was 4.66 µM (active), the AC50 [8] was 5.98 µM (active) and the AC50 [9] was 61 µM (active). The AC50 [10] was 53.1 µM (active).

In the case of C[C@@H]1CN([C@@H](C)CO)C(=O)Cc2cc(NC(=O)CCC(F)(F)F)ccc2O[C@H]1CN(C)Cc1ccc(Oc2ccccc2)cc1, the AC50 (Paired box protein Pax-8) is reported as 10.6 µM (active), the AC50 [8] is reported as 26.4 µM (active) and the AC50 [9] is reported as 41.7 µM (active).

With CCn1cc(C(=O)NCCC2=CCCCC2)c(=O)c2cc(S(=O)(=O)N(C)C)ccc21 the IC50 (Fatty acid synthase [11]) was 4.69 µM (active) and the IC50 (Fatty acid synthase [12]) was 2.74 µM (active).

With CC[C@H](C)/C=C(C)/C=C/C1=CC2=C(Cl)C(=O)[C@](C)(OC(C)=O)C(=O)C2=CO1 [SCLEROTIORIN] the AC50 [13] was 0.8 µM (active).
